Experimental data reported in patent publication US20250049970A1, “DLL3 TARGETING PEPTIDES AND CONSTRUCTS THEREOF” (MARIANA ONCOLOGY INC., priority 2023, published 2025).

Target: T1, DLL3 (Homo sapiens, UniProt Q9NYJ7)
T1 sequence (Q9NYJ7 27-618): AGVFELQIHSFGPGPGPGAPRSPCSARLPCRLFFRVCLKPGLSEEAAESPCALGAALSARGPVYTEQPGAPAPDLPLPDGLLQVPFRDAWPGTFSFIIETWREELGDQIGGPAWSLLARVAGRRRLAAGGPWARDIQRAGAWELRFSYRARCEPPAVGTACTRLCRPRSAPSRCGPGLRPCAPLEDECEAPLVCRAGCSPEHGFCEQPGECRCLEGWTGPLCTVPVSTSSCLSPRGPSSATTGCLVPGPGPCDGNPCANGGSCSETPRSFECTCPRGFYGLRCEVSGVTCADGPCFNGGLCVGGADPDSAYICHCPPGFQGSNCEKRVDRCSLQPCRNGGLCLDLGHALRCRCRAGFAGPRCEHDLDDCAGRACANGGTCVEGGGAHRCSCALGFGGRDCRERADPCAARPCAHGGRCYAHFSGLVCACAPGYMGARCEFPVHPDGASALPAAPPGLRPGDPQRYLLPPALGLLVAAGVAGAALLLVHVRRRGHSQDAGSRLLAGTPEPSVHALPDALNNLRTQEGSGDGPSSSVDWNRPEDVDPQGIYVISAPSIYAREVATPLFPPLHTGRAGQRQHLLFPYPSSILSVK
Experiment: SPR KD, biotinylated human DLL3 on streptavidin chip (Table 8)
Parameters: biotin (biotinylated)
Conditions: biotinylated human DLL3 on streptavidin sensor chip, 25° C., 1:1 binding model; read-out: SPR KD
Description: Biotinylated target ligand human DLL3 was immobilized on a streptavidin sensor chip. A reference surface was set up for nonspecific binding and refractive index changes. […] Sensorgram curves were fitted with 1:1 binding model, and affinity and kinetic parameters were obtained using Biacore Insight evaluation 4.0. software.

`CC(=O)N[C@@H](Cc1c[nH]c2ccccc12)C(=O)N[C@H](C(=O)N[C@H](C(=O)N[C@H]1CSSC[C@@H](C(=O)N[C@@H](Cc2c[nH]c3ccccc23)C(=O)N2CCC[C@H]2C(N)=O)NC(=O)[C@H](CC(=O)O)NC(=O)[C@H](CCCCNC(=O)CN2CCN(CC(=O)O)CCN(CC(=O)O)CCN(CC(=O)O)CC2)NC(=O)[C@H](Cc2ccc3ccccc3c2)NC(=O)[C@H](CC(N)=O)NC(=O)[C@H](CN2CCOCC2)NC1=O)C(C)(C)C)[C@@H](C)O` (single isomer, unassigned) [compound 304, Ac-W-T-(Tbg)-C(3)-[3-(1-morpholinyl)-Ala]-N-(2Nal)-Lys(DOTA)-D-C(3)-W-P-CONH2] gave a Kd of 1 to 10 nM.
With `CC(=O)N[C@@H](Cc1c[nH]c2ccccc12)C(=O)N[C@H](C(=O)N[C@@H](CC(C)(C)C)C(=O)N[C@H]1CSSC[C@@H](C(=O)N[C@@H](Cc2c[nH]c3ccccc23)C(=O)N2CCC[C@H]2C(N)=O)NC(=O)[C@H](CC(=O)O)NC(=O)[C@H](CCCCNC(=O)CN2CCN(CC(=O)O)CCN(CC(=O)O)CCN(CC(=O)O)CC2)NC(=O)[C@H](Cc2ccc3ccccc3c2)NC(=O)[C@H](CC(N)=O)NC(=O)C(CN2CCOCC2)NC1=O)[C@@H](C)O` (single isomer, unassigned) [compound 305, Ac-W-T-(t-Bu-Ala)-C(3)-[3-(1-morpholinyl)-Ala]-N-(2Nal)-Lys(DOTA)-D-C(3)-W-P-CONH2] the Kd was < 1 nM.
`CCC(C)(C)[C@H](NC(=O)[C@@H](NC(=O)[C@H](Cc1c[nH]c2ccccc12)NC(C)=O)[C@@H](C)O)C(=O)N[C@H]1CSSC[C@@H](C(=O)N[C@@H](Cc2c[nH]c3ccccc23)C(=O)N2CCC[C@H]2C(N)=O)NC(=O)[C@H](CC(=O)O)NC(=O)[C@H](CCCCNC(=O)CN2CCN(CC(=O)O)CCN(CC(=O)O)CCN(CC(=O)O)CC2)NC(=O)[C@H](Cc2ccc3ccccc3c2)NC(=O)[C@H](CC(N)=O)NC(=O)C(CN2CCOCC2)NC1=O` (single isomer, unassigned) [compound 306, Ac-W-T-(α-tert-amylGly)-C(3)-[3-(1-morpholinyl)-Ala]-N-(2Nal)-Lys(DOTA)-D-C(3)-W-P-CONH2] was tested, and the Kd was < 1 nM.
Molecule `CC[C@@H](C)[C@H](NC(=O)[C@@H](NC(=O)[C@H](Cc1c[nH]c2ccccc12)NC(C)=O)[C@@H](C)O)C(=O)N[C@H]1CSSC[C@@H](C(=O)N[C@@H](Cc2c[nH]c3ccccc23)C(=O)N2CCC[C@H]2C(N)=O)NC(=O)[C@H](CC(=O)O)NC(=O)[C@H](CCCCNC(=O)CN2CCN(CC(=O)O)CCN(CC(=O)O)CCN(CC(=O)O)CC2)NC(=O)[C@H](Cc2ccc3ccccc3c2)NC(=O)[C@H](CC(N)=O)NC(=O)C(CN2CCOCC2)NC1=O` (single isomer, unassigned) [compound 307, Ac-W-T-(Allo-Ile)-C(3)-[3-(1-morpholinyl)-Ala]-N-(2Nal)-Lys(DOTA)-D-C(3)-W-P-CONH2] has a Kd of 1 to 10 nM.
For `CC(=O)N[C@@H](Cc1c[nH]c2ccccc12)C(=O)N[C@H](C(=O)N[C@@H](CC(C)(C)C)C(=O)N[C@H]1CSSC[C@@H](C(=O)N[C@@H](Cc2c[nH]c3ccccc23)C(=O)N2CCC[C@H]2C(N)=O)NC(=O)[C@H](CC(=O)O)NC(=O)[C@H](CCCCNC(=O)CN2CCN(CC(=O)O)CCN(CC(=O)O)CCN(CC(=O)O)CC2)NC(=O)[C@H](Cc2ccc3ccccc3c2)NC(=O)[C@H](CC(N)=O)NC(=O)C(CN2CCOCC2)NC1=O)[C@@H](C)O` (single isomer, unassigned) [compound 310, Ac-W-T-(t-Bu-Ala)-C(3)-[3-(1-morpholinyl)-Ala]-N-(2Nal)-Lys(DOTA)-D-C(3)-W-P-CONH2], the Kd was < 1 nM.
`CCC(C)(C)[C@H](NC(=O)[C@@H](NC(=O)[C@H](Cc1c[nH]c2ccccc12)NC(C)=O)[C@@H](C)O)C(=O)N[C@H]1CSSC[C@@H](C(=O)N[C@@H](Cc2c[nH]c3ccccc23)C(=O)N2CCC[C@H]2C(N)=O)NC(=O)[C@H](CC(=O)O)NC(=O)[C@H](CCCCNC(=O)CN2CCN(CC(=O)O)CCN(CC(=O)O)CCN(CC(=O)O)CC2)NC(=O)[C@H](Cc2ccc3ccccc3c2)NC(=O)[C@H](CC(N)=O)NC(=O)C(CN2CCOCC2)NC1=O` (single isomer, unassigned) [compound 311, Ac-W-T-(α-tert-amylGly)-C(3)-[3-(1-morpholinyl)-Ala]-N-(2Nal)-Lys(DOTA)-D-C(3)-W-P-CONH2] was tested, and the Kd was < 1 nM.
